Results taken from the supplement of paper PMC10307832.

How the values were obtained:
Assay in all cases: relative viability (nuclei count vs DMSO), 5 days (fraction); higher = more cells survive
Erlotinib + Navitoclax = compound: C#Cc1cccc(Nc2ncnc3cc(OCCOC)c(OCCOC)cc23)c1 [Erlotinib] + CC1(C)CCC(c2ccc(Cl)cc2)=C(CN2CCN(c3ccc(C(=O)NS(=O)(=O)c4ccc(N[C@H](CCN5CCOCC5)CSc5ccccc5)c(S(=O)(=O)C(F)(F)F)c4)cc3)CC2)C1 [Navitoclax] (partner 0.5 µM)
Procedure, shortened: (§1)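 One day after seeding in 1536-well plates, lung cancer cell lines were dosed by pin tool. Dosing was either single-drug or a fixed anchor-drug dose plus five library-drug doses (not always all listed) in √10 steps. After 5 days, nuclei were stained in one fix-and-stain step and counted on 4× images, and relative viability is the nuclei count of treated wells over that of vehicle wells, given as the median of duplicate plates.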

AT9283 + Dasatinib = compound: O=C(Nc1c[nH]nc1-c1nc2ccc(CN3CCOCC3)cc2[nH]1)NC1CC1 [AT9283] + Cc1nc(Nc2ncc(C(=O)Nc3c(C)cccc3Cl)s2)cc(N2CCN(CCO)CC2)n1 [Dasatinib] (partner 0.075 µM)
Procedure, shortened: as §1

AT9283 + Tozasertib = compound: O=C(Nc1c[nH]nc1-c1nc2ccc(CN3CCOCC3)cc2[nH]1)NC1CC1 [AT9283] + Cc1cc(Nc2cc(N3CCN(C)CC3)nc(Sc3ccc(NC(=O)C4CC4)cc3)n2)n[nH]1 [Tozasertib] (partner 0.1 µM)
Procedure, shortened: as §1

AT9283 + Luminespib = compound: O=C(Nc1c[nH]nc1-c1nc2ccc(CN3CCOCC3)cc2[nH]1)NC1CC1 [AT9283] + CCNC(=O)c1noc(-c2cc(C(C)C)c(O)cc2O)c1-c1ccc(CN2CCOCC2)cc1 [Luminespib] (partner 0.01 µM)
Procedure, shortened: as §1

Erlotinib + Foretinib = compound: C#Cc1cccc(Nc2ncnc3cc(OCCOC)c(OCCOC)cc23)c1 [Erlotinib] + COc1cc2c(Oc3ccc(NC(=O)C4(C(=O)Nc5ccc(F)cc5)CC4)cc3F)ccnc2cc1OCCCN1CCOCC1 [Foretinib] (partner 0.25 µM)
Procedure, shortened: as §1

Cell Line	relative viability (Erlotinib + Navitoclax; first compound 0.02 µM)	relative viability (Erlotinib + Navitoclax; first compound 0.2 µM)	relative viability (Erlotinib + Navitoclax; first compound 0.6325 µM)	relative viability (Erlotinib + Navitoclax; first compound 2 µM)	relative viability (AT9283 + Dasatinib; first compound 0.003 µM)	relative viability (AT9283 + Dasatinib; first compound 0.03 µM)	relative viability (AT9283 + Dasatinib; first compound 0.09487 µM)	relative viability (AT9283 + Dasatinib; first compound 0.3 µM)	relative viability (AT9283 + Tozasertib; first compound 0.003 µM)	relative viability (AT9283 + Tozasertib; first compound 0.03 µM)	relative viability (AT9283 + Tozasertib; first compound 0.09487 µM)	relative viability (AT9283 + Tozasertib; first compound 0.3 µM)	relative viability (AT9283 + Luminespib; first compound 0.003 µM)	relative viability (AT9283 + Luminespib; first compound 0.03 µM)	relative viability (AT9283 + Luminespib; first compound 0.09487 µM)	relative viability (AT9283 + Luminespib; first compound 0.3 µM)	relative viability (Erlotinib + Foretinib; first compound 0.02 µM)	relative viability (Erlotinib + Foretinib; first compound 0.2 µM)	relative viability (Erlotinib + Foretinib; first compound 0.6325 µM)	relative viability (Erlotinib + Foretinib; first compound 2 µM)
A-427	0.946	0.99	0.978	0.997	0.698	0.402	0.124	0.131	0.186	0.179	0.168	0.161	0.822	0.486	0.319	0.176	1.17	1.01	1.15	1.02
NCI-H2170	0.513	0.377	0.451	0.216	0.446	0.427	0.16	0.133	0.748	0.276	0.164	0.157	0.821	0.574	0.509	0.176	1.04	1.05	0.935	0.656
NCI-H460	1.09	0.867	1.44	–	0.395	0.495	0.265	0.0688	0.388	0.198	0.0277	0.0528	0.0366	0.041	0.0309	0.0299	0.973	1.02	–	0.968
NCI-H2405	0.915	0.902	1.01	0.78	0.177	0.185	0.132	0.107	0.689	0.418	0.272	0.261	0.662	0.625	0.352	0.331	–	1.02	1.09	1.01
NCI-H2023	1.01	1.02	0.916	0.837	0.526	0.42	0.182	0.101	0.388	0.232	0.19	0.18	0.954	0.742	0.361	0.11	0.754	0.607	0.589	0.406
NCI-H1975	1.11	1.07	1.07	0.977	0.401	0.461	0.389	0.237	0.728	0.664	0.58	0.311	0.198	0.243	0.215	0.132	0.951	1.02	–	0.71
SW 900	–	–	–	–	0.652	0.533	0.438	0.385	0.476	0.526	0.359	0.307	0.178	0.19	0.172	0.171	0.98	0.92	0.792	0.757
EBC-1	0.404	0.466	0.363	0.34	–	–	–	–	–	–	–	–	–	–	–	–	0.0955	0.0898	0.104	0.0948
NCI-H2342	–	–	–	–	0.295	0.292	0.289	0.27	0.555	0.453	0.403	0.344	0.795	0.93	0.499	0.348	1.08	0.899	0.932	–
NCI-H1299	1.11	1.08	1.06	0.981	–	–	–	–	–	–	–	–	–	–	–	–	1.11	1.08	1.16	1.07
ABC-1	–	–	–	–	0.498	0.178	0.196	0.207	0.198	0.17	0.172	0.183	0.579	0.246	0.275	0.189	1.03	0.547	1.06	0.818
HCC-44	0.992	0.866	1.05	0.868	–	–	–	–	0.94	0.621	0.294	0.321	1.04	1.19	0.426	0.319	–	–	–	–
NCI-H1648	–	–	–	–	–	–	–	–	0.456	0.343	0.329	0.258	–	–	–	–	–	–	–	–
NCI-H522	–	–	–	–	0.66	0.678	0.583	0.476	0.545	0.576	0.56	0.557	1.14	0.99	0.467	0.51	–	–	–	–
NCI-H1563	–	–	–	–	0.444	0.444	0.42	0.327	–	–	–	–	0.5	0.527	0.443	0.45	0.979	0.836	0.955	0.951
NCI-H1623	–	–	–	–	0.567	0.51	0.615	0.324	0.411	0.408	0.357	0.389	0.466	0.559	0.437	0.37	0.923	0.679	0.366	0.301
LCLC-103H	–	–	–	–	0.433	0.486	0.428	0.296	0.45	0.347	0.187	0.259	0.829	0.755	0.313	0.304	0.743	0.799	0.848	0.566
A549	1.1	1.26	1.33	1.06	–	–	–	–	–	–	–	–	–	–	–	–	0.795	0.947	0.902	0.786
IA-LM	0.847	–	1.01	0.802	–	–	–	–	–	–	–	–	–	–	–	–	1.31	1.12	1.19	1.03
NCI-H661	–	–	–	–	0.862	0.355	0.307	0.26	0.347	0.344	0.389	0.37	0.916	0.399	0.304	0.313	1	0.921	1.1	0.705
NCI-H650	–	–	–	–	0.425	0.433	0.219	0.175	0.693	0.408	0.17	0.177	0.771	0.701	0.242	0.173	1.03	1.02	1.19	0.924
NCI-H1792	0.451	0.545	0.84	0.579	0.894	0.886	0.748	0.538	–	–	–	–	0.264	0.454	0.382	0.229	–	–	–	–
